From paper PMC5772648, “Targeted NUDT5 inhibitors block hormone signaling in breast cancer cells” (Nature Communications, 2018)
Several values for one entry are separate records, joined by “and”; a condition that tells them apart may be missing. Identical values can stand only once.

Columns and labels:
T47D cells = experiment: cell viability by resazurin; assay type: cell-based; conditions: 72 h
Method: Cell viability was assessed by resazurin[9]. 5000 HL-60 cells (or 1000 U-2 OS/2000 T47D cells) were seeded per well on a 96-well plate. The following morning, compounds (or the equivalent amount of DMSO) were added to obtain the final concentrations indicated and the cells were incubated at 37 °C for 72 h with resazurin added at 0.02 mg/mL for the last 2–6 h. Resorufin fluorescence was detected at […] with a Hidex Sense fluorescent plate reader. Viability curves were fit using the sigmoidal dose-response (variable slope) function in GraphPad Prism 7.

human NUDT5 = target: T1, human NUDT5 (Homo sapiens, UniProt Q9UKK9); experiment: enzyme-coupled malachite green assay (MG assay), ADPR hydrolysis; assay type: biochemical; conditions: NUDT5, ADPR substrate; read-out: MG assay IC50 (Biochemical IC50)
T1 construct: His-tag (N); made in house; host or cells: E. coli BL21 (DE3) R3 pRARE2
Excerpt: We next sought to develop small molecule NUDT5 inhibitors to further probe the role of NUDT5 in ADPR metabolism. A high-throughput, screening-compatible NUDT5 inhibition assay was established using slight modifications to the aforementioned MG procedure (Fig. 2a)[15],[27]. Briefly, ADPR, NUDT5 and calf intestinal alkaline phosphatase (CIP) were combined in a coupled enzymatic assay, as described in the online methods. In turn, ADPR was hydrolyzed to AMP and R5P by NUDT5, and the released R5P was further degraded to ribose and inorganic phosphate (Pi) by CIP. Free Pi was subsequently detected using the malachite green reagent. The screen was conducted using a combination of the Chemical Biology Consortium of Sweden (CBCS) primary screening set and several commercial libraries from Enamine, TimTec, Maybridge and ChemDiv. In total, ~72 000 distinct chemical entities were screened for their potential inhibition of NUDT5 at a concentration of 10 µM (Supplementary Table 1, Supplementary Fig. 2a, b). Execution of this screening campaign was split between two different occasions. The screening performance in the two screening campaigns was excellent (average z´ factors of 0.87 and 0.85, Supplementary Fig. 2c), resulting in a hit limit as defined by the average and three standard deviations of the library compound responses of 10.1 and 18.4% inhibition, respectively (Supplementary Table 1, Supplementary Fig. 2a, b). This translated to 53 and 475 hits (0.3 and 0.8% hit rate, respectively), yielding 528 total hits from the 2 separate screening occasions.
Activity of NUDT5 and MTH1 with a panel of potential substrates [2-OH-ATP, 2-OH-dATP, 8-oxo-dGDP, GDP and 8-oxo-GTP (Jena Biosciences), 8-oxo-dGTP (TriLink Biotechnologies), dATP (ThermoFisher Scientific), dGTP, GTP and ADPR (Sigma-Aldrich)] was assessed in reaction buffer (100 mM Tris Acetate pH 7.5, 40 mM NaCl, 10 mM Mg Acetate) at 22 °C. For ADPR, alkaline phosphatase from bovine intestinal mucosa (10 U/ml; Sigma-Aldrich) was added as coupled enzyme, while other substrates were coupled to E. coli pyrophosphatase (0.2 U/mL, Sigma-Aldrich). After 30 min incubation with shaking, formed inorganic phosphate was detected by addition of malachite green reagent. Absorbance at 630 nm was read after 15 min incubation with shaking using a Hidex Sense plate reader. The potency of NUDT5 inhibitors was assessed similarly as above (and in the screening campaign) by monitoring ADPR hydrolysis; details are in the Supplementary Information.
Small molecule library composition
The screen for NUDT5 inhibitors was conducted at Chemical Biology Consortium Sweden (www.cbcs.se). Two screening campaigns completed in August 2012 and in March 2013 respectively comprised a combination of in-house and commercially available libraries, amounting to a total of 75679 compounds. The commercial compounds originate from Enamine, TimTec, MayBridge and ChemDiv. The in-house libraries were donated by Biovitrum AB, Sweden (the origin and composition is described previously)2. For long-term storage, the compounds are kept frozen at - 20°C as 10 mM solutions in dimethyl sulfoxide (DMSO) under low humidity conditions in REMP 96 Storage Tube Racks in a REMP Small-Size Store™. To facilitate screening an aliquot of the stock solutions have been transferred to Labcyte 384 LDV plates (LP-0200) to enable dispensing using an Echo 550™ acoustic liquid handler (LabCyte). For both screening campaigns 40 nl of the compound solutions were dispensed directly into columns 1-22 of the 384-well assay plates (Nunc 242757), while columns 23 and 24 were reserved for controls as outlined below. The plates were sealed with a Peelable Aluminium seal (Agilent 24210-001) using a PlateLoc thermal microplate sealer (Agilent) and kept at room temperature until used. The final compound concentration in the screen was 10 µM with a final DMSO concentration of […]
Enzymatic assay applied for screening and hit confirmation […]

[1] = target: T2, NUDT5 in HL-60 cell lysates (Homo sapiens, UniProt Q9UKK9); experiment: cell lysate CETSA (HT-CETSA); assay type: binding; conditions: 20 µM, 83 °C
T2 construct: endogenous in cells; host or cells: HL-60
Method: Target engagement in cells was determined by the cellular thermal shift assay (CETSA)[29]. Briefly, cell lysate thermal shift assays were performed with 1 × 10^6 HL-60 cells per temperature/condition. Cells were collected and washed once with PBS and resuspended in TBS with protease inhibitor cocktail (Mini cOmplete, EDTA-free, Roche) at 60 µL/1 × 10^6 cells. The cells were then aliquoted and lysed by freeze-thawing three times with 3-min incubations (3x, 3 min.+3 min.) using an ethanol/dry ice bath and water bath at 37 °C. The lysates were then centrifuged at 20,000×g for 20 min at 4 °C to remove cellular debris. Supernatants were then transferred to PCR strip tubes and treated with 0.5 µL DMSO (0.8% v/v final) or 20 µM inhibitor for 20 min at room temperature. Lysates with compounds were heated at the indicated temperature in a Veriti Thermal Cycler (Applied Biosystems) for 3 min, then cooled for another 3 min at room temperature. They were then centrifuged at 20 000 × g for 20 min at 4 °C to pellet protein aggregates and 45 µL was removed and prepared for western blotting analysis.

[2] = system: nuclear ATP production in T47D^WT cells; experiment: nuclear ATP visualization by bioluminescence (Nuc-luc reporter) after R5020; assay type: cell-based; conditions: 10 nM R5020
Method: For hormone and inhibitor treatments, normal T47D^WT cells or cells containing a single copy of luciferase under the control of the mouse mammary tumor virus (MMTV) promoter (T47D^M) were used[23]. Prior to hormone induction, cells were grown in phenol red-free RPMI medium supplemented with 10% dextran-coated charcoal-treated FBS (DCC/FBS). After 16 h in serum-free conditions, cells were pre-incubated with DMSO (vehicle) or NUDT5 inhibitor for 2 h at the indicated dose before addition of R5020 (10 nM) or vehicle (ethanol, EtOH) for the allotted time.
T47D^WT cells were seeded in RPMI in black-walled 96-well plates and transfected using Lipofectamine 2000® (Invitrogen, manufacturer’s instructions) with the nuclear-targeted luciferase constructs (Nuc-luc FRTTO[53]) at a final concentration of 50 ng DNA/well for 48 h. 16 h prior to hormone (R5020, 10 nM) exposure, cells were synchronized by serum starvation. Bioluminescence was activated by addition of 100 µl D-luciferin (1 mg/mL water, Sigma) and ATP was quantified using an IVIS system (Xenogen Corp).

SMILES	toxicity in T47D cells (T47D cells)	IC50 (human NUDT5)	NUDT5 stabilization in cell lysates [1]	nuclear luminescence (nuclear ATP) after R5020 ([2]; 1.5 µM)	nuclear luminescence (nuclear ATP) after R5020 ([2]; 15 µM)
Cn1c(=O)c2c(nc(N3CCNCC3)n2Cc2nnc(-c3ccc(Cl)c(Cl)c3)o2)n(C)c1=O [TH5427]	generally non-toxic when used below 20 µM	29.1 nM and 29 nM	showed the most stabilization of NUDT5 in cell lysates	marked reduction in nuclear luminescence	
CCN1CCN(c2nc3c(c(=O)n(C)c(=O)n3C)n2Cc2nnc(-c3ccc(Cl)c(Cl)c3)o2)CC1 [TH5424]	generally non-toxic when used below 20 µM	39 nM	showed the most stabilization of NUDT5 in cell lysates		strong luminescence was observed
